Measurements as given in patent US4401595A, “4-Allyl azetidinone intermediate for β-lactam antibacterial agents” (Beecham Group Limited, priority 1977, dated 1983).
In brackets after ≈: the same amount, converted by molar mass. Where two headings read alike, the source gives them in different places.

Tests used:
Staph. aureus Russell = assay: MIC in agar; assay type: cell-based; conditions: Staphylococcus aureus, read-out: MIC, concentration required to inhibit the growth
Serratia marcescens US20 = assay: MIC in agar; assay type: cell-based
Enterobacter cloacae N1 = assay: MIC in agar; assay type: cell-based; conditions: read-out: concentration required to inhibit the growth
Shigella sonnei MB 11967 = assay: MIC in agar; assay type: cell-based; conditions: MB11967, read-out: MIC, concentration required to inhibit the growth
Staph. aureus Oxford = assay: MIC in agar; assay type: cell-based; conditions: Staphylococcus aureus, read-out: concentration required to inhibit the growth
Klebsiella aerogenes A = assay: MIC in agar; assay type: cell-based; conditions: read-out: MIC, concentration required to inhibit the growth
[1] = target: β-lactamase, Enterobacter P99 (Enterobacter cloacae, UniProt P05364); assay: β-lactamase inhibition I50; assay type: biochemical
Chain of β-lactamase, Enterobacter P99 (P05364 21-381): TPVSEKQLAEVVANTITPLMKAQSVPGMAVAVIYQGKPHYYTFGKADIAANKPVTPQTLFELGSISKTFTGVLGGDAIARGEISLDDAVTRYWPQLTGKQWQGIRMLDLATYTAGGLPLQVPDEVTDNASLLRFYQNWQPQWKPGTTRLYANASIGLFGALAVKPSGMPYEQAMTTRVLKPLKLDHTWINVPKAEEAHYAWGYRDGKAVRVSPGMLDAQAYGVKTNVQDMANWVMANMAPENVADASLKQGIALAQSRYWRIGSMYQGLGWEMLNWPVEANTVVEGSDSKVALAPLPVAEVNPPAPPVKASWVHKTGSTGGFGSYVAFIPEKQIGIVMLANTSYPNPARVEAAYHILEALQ

[2] = target: β-lactamase, Escherichia coli JT4 (Escherichia coli, UniProt P62593); assay: β-lactamase inhibition I50; assay type: biochemical
Chain of β-lactamase, Escherichia coli JT4 (P62593 24-286 limits assumed): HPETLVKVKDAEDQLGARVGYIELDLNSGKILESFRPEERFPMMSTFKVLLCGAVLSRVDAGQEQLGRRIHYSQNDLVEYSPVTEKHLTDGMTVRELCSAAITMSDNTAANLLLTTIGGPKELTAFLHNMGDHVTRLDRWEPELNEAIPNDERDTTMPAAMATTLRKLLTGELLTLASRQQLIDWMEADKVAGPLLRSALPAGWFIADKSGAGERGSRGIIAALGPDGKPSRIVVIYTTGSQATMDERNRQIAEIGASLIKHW

[3] = target: β-lactamase, Staphylococcus aureus Russell (Staphylococcus aureus, UniProt P00807); assay: β-lactamase inhibition I50; assay type: biochemical
Chain of β-lactamase, Staphylococcus aureus Russell (P00807 25-281): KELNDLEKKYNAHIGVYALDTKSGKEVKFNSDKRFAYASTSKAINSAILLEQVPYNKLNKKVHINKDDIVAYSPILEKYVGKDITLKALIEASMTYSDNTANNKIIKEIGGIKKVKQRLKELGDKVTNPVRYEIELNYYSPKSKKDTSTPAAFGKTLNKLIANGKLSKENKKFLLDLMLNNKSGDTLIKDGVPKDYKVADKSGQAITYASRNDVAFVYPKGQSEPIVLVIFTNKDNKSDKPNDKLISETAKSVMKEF

[4] = target: β-lactamase, Pseudomonas aeruginosa A (Pseudomonas aeruginosa, UniProt P24735); assay: β-lactamase inhibition I50; assay type: biochemical
Chain of β-lactamase, Pseudomonas aeruginosa A (P24735 27-397): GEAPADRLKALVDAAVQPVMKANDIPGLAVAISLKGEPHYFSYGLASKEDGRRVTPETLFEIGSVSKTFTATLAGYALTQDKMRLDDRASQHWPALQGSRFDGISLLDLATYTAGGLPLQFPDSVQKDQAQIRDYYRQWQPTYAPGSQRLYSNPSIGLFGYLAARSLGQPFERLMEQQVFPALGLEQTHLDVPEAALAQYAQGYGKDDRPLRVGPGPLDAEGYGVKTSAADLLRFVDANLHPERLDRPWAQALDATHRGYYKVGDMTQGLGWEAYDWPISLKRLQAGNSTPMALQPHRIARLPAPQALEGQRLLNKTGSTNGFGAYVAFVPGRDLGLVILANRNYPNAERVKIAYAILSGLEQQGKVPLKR

Bacillus subtilis A = assay: MIC in agar; assay type: cell-based; conditions: read-out: MIC, concentration required to inhibit the growth
Proteus mirabilis C977 = assay: MIC in agar; assay type: cell-based; conditions: read-out: concentration required to inhibit the growth
Strep pyogenes CN10 = assay: MIC in agar; assay type: cell-based; conditions: read-out: concentration required to inhibit the growth
Staph. aureus 1517 = assay: MIC in agar; assay type: cell-based; conditions: Staphylococcus aureus, read-out: MIC, concentration required to inhibit the growth
E. coli 0111 = assay: MIC in agar; assay type: cell-based; conditions: Escherichia coli, read-out: concentration required to inhibit the growth
[5] = system: Salmonella typhimurium CT10; assay: MIC in agar; assay type: cell-based; conditions: Salmonella enterica, read-out: concentration required to inhibit the growth
Proteus morganii I 580 = assay: MIC in agar; assay type: cell-based; conditions: Morganella morganii, I580, read-out: concentration required to inhibit the growth
Citrobacter freundii E8 = assay: MIC in agar; assay type: cell-based; conditions: read-out: MIC, concentration required to inhibit the growth
Proteus rettgeri WM16 = assay: MIC in agar; assay type: cell-based; conditions: Providencia rettgeri, read-out: concentration required to inhibit the growth
Proteus vulgaris WO 91 = assay: MIC in agar; assay type: cell-based; conditions: WO91, read-out: concentration required to inhibit the growth
Klebsiella aerogenes = assay: MIC in agar; assay type: cell-based; conditions: Klebsiella aerogenes (strain not given), read-out: concentration required to inhibit the growth
Salmonella typhimurium = assay: MIC in agar; assay type: cell-based; conditions: Salmonella enterica, Salmonella typhimurium (strain not given), read-out: concentration required to inhibit the growth
Strep pneumoniae = assay: MIC in agar; assay type: cell-based; conditions: read-out: concentration required to inhibit the growth
Strep. pyogenes = assay: MIC in agar; assay type: cell-based; conditions: Streptococcus pyogenes, Strep. pyogenes (strain not given), read-out: concentration required to inhibit the growth
[6] = target: β-lactamase, Proteus mirabilis C889; assay: β-lactamase inhibition I50; assay type: biochemical
[7] = target: β-lactamase, Klebsiella aerogenes E70; assay: β-lactamase inhibition I50; assay type: biochemical
[8] = target: β-lactamase, Pseudomonas dalgleish (Pseudomonas aeruginosa, UniProt P16897); assay: β-lactamase inhibition I50; assay type: biochemical
Chain of β-lactamase, Pseudomonas dalgleish (P16897 18-288): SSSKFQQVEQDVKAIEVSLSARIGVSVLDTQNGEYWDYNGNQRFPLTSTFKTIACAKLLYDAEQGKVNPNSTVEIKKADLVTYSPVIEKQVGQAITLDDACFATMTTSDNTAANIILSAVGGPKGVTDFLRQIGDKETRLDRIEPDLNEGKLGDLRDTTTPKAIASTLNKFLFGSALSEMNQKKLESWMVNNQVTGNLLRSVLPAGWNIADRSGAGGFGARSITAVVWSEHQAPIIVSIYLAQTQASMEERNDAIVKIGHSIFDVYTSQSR

Strep faecalis I = assay: MIC in agar; assay type: cell-based; conditions: read-out: concentration required to inhibit the growth
Pseudomonas aeruginosa A = assay: MIC in agar; assay type: cell-based; conditions: read-out: concentration required to inhibit the growth
[9] = Serratia marcescens US20, read-out: concentration required to inhibit the growth

SMILES	MIC (Staph. aureus Russell) [µg/mL]	MIC (Enterobacter cloacae N1) [µg/mL]	MIC (Shigella sonnei MB 11967) [µg/mL]	MIC (Staph. aureus Oxford) [µg/mL]	MIC (Klebsiella aerogenes A) [µg/mL]	MIC (Bacillus subtilis A) [µg/mL]	MIC (Proteus mirabilis C977) [µg/mL]	MIC (Staph. aureus 1517) [µg/mL]	MIC (E. coli 0111) [µg/mL]	MIC [5] [µg/mL]	MIC (Citrobacter freundii E8) [µg/mL]	other results
CC(C)(O)[C@H]1C(=O)N2C(C(=O)OCc3ccccc3)=CC[C@@H]12 (relative stereo) [Example 4 cis-isomer, Benzyl 6-(2-hydroxy-2-propyl)-7-oxo-1-azabicyclo[3,2,0]hept-2-ene-2-carboxylate]	≤ 2	20 (≈ 66.4 µM)	≤ 2	≤ 2	≤ 2	–	–	–	–	–	–	MIC (Serratia marcescens US20; [9]): 20 µg/mL (≈ 66.4 µM)
O=C(OCc1ccccc1)C1=CC[C@H]2[C@@H](C3(O)CCCCC3)C(=O)N12 (relative stereo) [compound 34, Benzyl 6-(1-hydroxycyclohex-1-yl)-7-oxo-1-azabicyclo[3,2,0]hept-2-ene-2-carboxylate]	–	–	–	–	–	–	–	–	–	–	–	IC50 [1]: 14.6 µM; IC50 [2]: 46.9 µM; IC50 [3]: 13.5 µM; IC50 [4]: 4.1 µM
COC(=O)/C=C/C[C@H]1C(=O)N2C(C(=O)OC3OC(=O)c4ccccc43)=CC[C@@H]12 (relative stereo) [compound 41, Phthalidyl 6-(3-methoxycarbonyl-2-propen-1-yl)-7-oxo-1-azabicyclo[3,2,0]hept-2-ene-2-carboxylate]	≤ 0.8	–	50 (≈ 130 µM)	≤ 0.8	50 (≈ 130 µM)	25 (≈ 65.2 µM)	100 (≈ 261 µM)	≤ 0.8	50 (≈ 130 µM)	50 (≈ 130 µM)	–	MIC (Strep pyogenes CN10): ≤ 0.8 µg/mL
N#C/C=C/C[C@H]1C(=O)N2C(C(=O)OCc3ccccc3)=CC[C@@H]12 (relative stereo) [compound 56, Benzyl 6-(3-cyano-2-propen-1-yl)-7-oxo-1-azabicyclo[3,2,0]hept-2-ene-2-carboxylat]	≤ 2	20 (≈ 64.9 µM)	20 (≈ 64.9 µM)	≤ 2	20 (≈ 64.9 µM)	20 (≈ 64.9 µM)	20 (≈ 64.9 µM)	≤ 2	20 (≈ 64.9 µM)	20 (≈ 64.9 µM)	20 (≈ 64.9 µM)	MIC (Proteus morganii I 580): 20 µg/mL (≈ 64.9 µM); MIC (Serratia marcescens US20; [9]): 20 µg/mL (≈ 64.9 µM); MIC (Proteus rettgeri WM16): 20 µg/mL (≈ 64.9 µM)
N#C/C=C/C[C@H]1C(=O)N2C(C(=O)OC3OC(=O)c4ccccc43)=CC[C@@H]12 (relative stereo) [compound 61, Phthalidyl 6-(3-cyano-2-propen-1-yl)-7-oxo-1-azabicyclo[3,2,0]hept-2-ene-2-carboxylat]	2.4 (≈ 6.85 µM)	22 (≈ 62.8 µM)	22 (≈ 62.8 µM)	2.4 (≈ 6.85 µM)	–	–	66.6 (≈ 190 µM)	–	7.3 (≈ 20.8 µM)	–	7.3 (≈ 20.8 µM)	MIC (Proteus morganii I 580): 22 µg/mL (≈ 62.8 µM); MIC (Proteus vulgaris WO 91): 66.6 µg/mL (≈ 190 µM); MIC (Serratia marcescens US20; [9]): 22 µg/mL (≈ 62.8 µM); MIC (Proteus rettgeri WM16): 22 µg/mL (≈ 62.8 µM); MIC (Klebsiella aerogenes): 7.3 µg/mL (≈ 20.8 µM); MIC (Salmonella typhimurium): 7 µg/mL (≈ 20 µM)
COC(=O)/C=C/CC1C(=O)N2C(C(=O)OCc3ccc([N+](=O)[O-])cc3)=CCC12 (stereo not shown) [53a, p-Nitrobenzyl 6-(3-methoxycarbonyl-2-propen-1-yl)-7-oxo-1-azabicyclo[3,2,0]hept-2-ene-2-carboxylate]	2.46 (≈ 6.37 µM)	–	–	–	–	–	–	–	–	–	–	MIC (Strep pneumoniae): 7.4 µg/mL (≈ 19.2 µM); MIC (Strep. pyogenes): 0.8 µg/mL (≈ 2.07 µM)
O=CCC1C(=O)N2C(C(=O)OCc3ccccc3)=CCC12 (stereo not shown) [compound 4, Benzyl 6-(2-oxoethyl)-7-oxo-1-azabicyclo[3,2,0]hept-2-ene-2-carboxylate]	–	–	–	–	–	–	–	–	–	–	–	IC50 [1]: 5.61 µM; IC50 [2]: < 4.21 µM; β-lactamase inhibition I50 [6]: 2.1 µg/mL; IC50 [3]: > 35.1 µM; β-lactamase inhibition I50 [7]: > 40 µg/mL; IC50 [8]: 3.51 µM; IC50 [4]: > 140 µM
COC(=O)/C=C/CC1C(=O)N2C(C(=O)OCc3ccccc3)=CCC12 (stereo not shown) [compound 5, Benzyl 6-(3-methoxycarbonyl-2-propen-1-yl)-7-oxo-1-azabicyclo[3,2,0]hept-2-ene-2-carboxylate]	2 (≈ 5.86 µM)	–	20 (≈ 58.6 µM)	–	20 (≈ 58.6 µM)	20 (≈ 58.6 µM)	–	2 (≈ 5.86 µM)	–	–	20 (≈ 58.6 µM)	–
COC(=O)/C=C/CC1C(=O)N2C(C(=O)OCC(Cl)(Cl)Cl)=CCC12 (stereo not shown) [compound 8, 2,2,2-Trichloroethyl-6-(3-methoxycarbonyl-2-propen-1-yl)-7-oxo-1-azabicyclo[3,2,0]hept-2-ene-2-carboxylate]	≤ 2	–	20 (≈ 52.3 µM)	≤ 2	20 (≈ 52.3 µM)	20 (≈ 52.3 µM)	–	≤ 2	–	–	20 (≈ 52.3 µM)	MIC (Strep pyogenes CN10): 20 µg/mL (≈ 52.3 µM); MIC (Strep pneumoniae): 20 µg/mL (≈ 52.3 µM); MIC (Strep faecalis I): 20 µg/mL (≈ 52.3 µM)
O=C(OCc1ccccc1)C1=CC[C@@H]2[C@H](C(O)c3ccccc3)C(=O)N12 (stereo partly shown) [compound 30, Benzyl 6-(1-hydroxy-1-phenylmethyl)-7-oxo-1-azabicyclo[3,2,0]hept-2-ene-2-carboxylate]	–	–	–	–	–	–	–	–	–	–	–	β-lactamase inhibition I50 [6]: 0.27 µg/mL; IC50 [3]: 0.149 µM
COC(=O)/C=C/CC1C(=O)N2C(C(=O)OCOC(=O)C(C)(C)C)=CCC12 (stereo not shown) [compound 52, Pivaloyloxymethyl 6-(3-methoxycarbonyl-2-propen-1-yl)-7-oxo-1-azabicyclo[3,2,0]hept-2-ene-2-carboxylate]	2 (≈ 5.47 µM)	–	20 (≈ 54.7 µM)	2 (≈ 5.47 µM)	20 (≈ 54.7 µM)	20 (≈ 54.7 µM)	–	2 (≈ 5.47 µM)	20 (≈ 54.7 µM)	20 (≈ 54.7 µM)	–	–
O=C(OC1OC(=O)c2ccccc21)C1=CCC2CC(=O)N12 (stereo not shown) [compound 81, Phthalidyl 7-oxo-1-azabicyclo[3,2,0]hept-2-ene-2-carboxylate]	20 (≈ 70.1 µM)	20 (≈ 70.1 µM)	–	20 (≈ 70.1 µM)	20 (≈ 70.1 µM)	20 (≈ 70.1 µM)	20 (≈ 70.1 µM)	–	20 (≈ 70.1 µM)	20 (≈ 70.1 µM)	20 (≈ 70.1 µM)	MIC (Serratia marcescens US20; US20, Serratia marcescens VS20, read-out: concentration required to inhibit the growth): 20 µg/mL (≈ 70.1 µM); MIC (Pseudomonas aeruginosa A): 160 µg/mL (≈ 561 µM)
